Drawing on ChEMBL document CHEMBL1131267, “Diastereoselective synthesis of octahydro-14H-benzo[g]quinolino-[2,3-a]quinolidines. Improved cytotoxic activity against human brain tumor cell lines as a result of the increased rigidity of the molecular backbone” (1998), this text covers CC50 for seven compounds.

Molecules are shown by their SMILES.

Common to all, as to type: functional
Common to all, as to conditions: read-out: LC50 (the source's name)

Experiment [1] relates to A 172. In words: Compound was evaluated for cytotoxicity against human glioblastoma (A172) cell line.
Experiment [2] relates to T98G. The experiment in a line: Compound was evaluated for cytotoxicity against human glioblastoma (T98G) cell line.
Experiment [3] concerns D283 Med. In words: Compound was evaluated for cytotoxicity against human medulloblastoma (D283 Med) cell line.

Regarding `CC1(C)c2cc(Cl)ccc2N[C@@H]2[C@@H]3Cc4ccccc4CN3CC[C@@H]21`, the CC50 in experiment [1] was found to be 22 µM; in experiment [2] it was 12 µM; in experiment [3], 8 µM.

As to `COc1ccc2c(c1)C(C)(C)[C@H]1CCN3Cc4ccccc4C[C@H]3[C@H]1N2`, the CC50 in experiment [1] came out at 42 µM; in experiment [2] it was 35 µM; in experiment [3], 25 µM.

As for `CC1(C)c2ccccc2N[C@@H]2[C@@H]3Cc4ccccc4CN3CC[C@@H]21`, the values for the CC50 in experiment [1], in experiment [2] and in experiment [3] were 45 µM, 14 µM and 22 µM, respectively.

In the case of `C=C(C)[C@H]1CCN2Cc3ccccc3C[C@H]2[C@H]1NCc1ccc(Cl)cc1`, the CC50 came out at 55 µM in experiment [1], 42 µM in experiment [2] and 29 µM in experiment [3].

For `CC1(C)c2cc(C(F)(F)F)ccc2N[C@@H]2[C@@H]3Cc4ccccc4CN3CC[C@@H]21`, the CC50 in experiment [1] was 20 µM; in experiment [2], 13 µM; in experiment [3], 17 µM.

With `Cc1cccc2c1N[C@@H]1[C@@H]3Cc4ccccc4CN3CC[C@@H]1C2(C)C`, the figures for the CC50 in experiment [1], in experiment [2] and in experiment [3] were 31 µM, 21 µM and 20 µM, respectively.

For the compound `Cc1ccc2c(c1)C(C)(C)[C@H]1CCN3Cc4ccccc4C[C@H]3[C@H]1N2`, the CC50 was determined as 25 µM in experiment [1], 20 µM in experiment [2] and 20 µM in experiment [3].
